Data reported in PMC9311615 (Antibiotics, 2022).
Where two headings read alike, the source gives them in different places.

Assays:
[1] = Population pharmacokinetic model (NONMEM), one-compartment first-order elimination
Procedure: Basic model building was performed using the building subset (n = 94), through PsN-controlled NONMEM iterative runs. One- and two- compartment models with first-order elimination, parametrized in terms of drug Cl and Vd, were evaluated. Residual error was described using additive, proportional or mixed error models. Models were compared based on the following aspects: (1) minimization of the OFV; (2) standard errors and confidence intervals of parameter estimates, calculated for each model through NONMEM correlation matrices and PsN-controlled bootstrap method; (3) goodness-of-fit plots generated with Xpose4 [24]; (4) plausibility of parameter estimates, according to the literature.
The preliminary covariate screening was performed through several Xpose4 functions, which are as follows: (1) graphic analysis of covariate-covariate plots to exclude redundancies, (2) graphic analysis of parameters-covariate plots, (3) generalized additive model (GAM) to search for the covariates that minimized the most of Akaike’s information criterion (AIC) value. Covariate model building was based on the least absolute shrinkage and selection operator method, which is automated within the “lasso” Perl command [17]. Further insights on covariates effect were collected with the same methods, after the second patient enrollment round.
The final model was validated both with internal and external approaches. The former one was performed through the following steps: (1) a visual predictive check (VPC), namely a concentration-time plot, where the mean and 5th and 95th percentile of real data are superimposed to the respective descriptive measures of simulated concentrations; (2) a numeric predictive check, which assesses abnormal trends in the DV/iPRED ratio for different statistical confidence intervals; (3) a bootstrap of the model, which calculates the bias between final parameters estimates and the means estimated through 1500 further runs of the same model, based on a random resampling from the same dataset; (4) calculation of η- and ε-shrinkage, as described in the following equations:(3) ηshrink=1−stdev(ηest)/ω (4) εshrink=1−stdev(IWRES)

E. faecium = settings: Monte-Carlo on Dvorchik's pop-PK model, cited from earlier work
[2] = Daptomycin plasma concentrations, routine TDM, HPLC-UV; settings: for Daptomycin plasma concentration 1 h, mean ± SD: peak; for Daptomycin plasma concentration 23.5 h, mean ± SD: trough
Procedure: This work was conducted in the framework of DAPTOLIN, an observational retrospective study approved by the Ethics Committee of the Azienda OspedalieroUniversitaria Pisana (AOUP protocol number 55945). […] Patients with incomplete medical records were excluded. […] After the first round, in which 134 patients were included, the dataset was split in 2 subsets through an iterative stratified sampling procedure [21]. The covariates considered for subset balancing were sex, weight, CrCl (calculated through the Cockroft-Gault equation), serum albumin and serum total protein concentration. During the second round, 22 further patients were included, to reach a total of 156 included patients.
Venous blood samples were collected in heparinized tubes and centrifuged immediately after. The extracted plasma was then stored at −20 °C until subsequent analysis.
The quantification technique was based on the novel HPLC-UV method developed and described by Luci and colleagues [22]. Briefly, plasma samples were firstly purified using a 95:5 v/v mixture of acetonitrile and 85% H3PO4, to induce protein precipitation. Samples were then vortexed for 30 s and centrifuged at 7700 rpm for 15 min. […] The mobile phase, composed of a 54:46 v/v mixture of 20 mM KH2PO4 and acetonitrile at pH 3.2, was pumped in the HPLC system at a 1 mL/min flowrate, while the chromatographic column temperature was kept at 35 °C. These conditions allowed the optimal separation of analytes in a 10 min-long chromatographic run.

[3] = daily dose 6–7 mg/kg, n = 96 patients
[4] = daily dose 8–9 mg/kg, n = 32 patients
[5] = daily dose 10–11 mg/kg, n = 8 patients

CCCCCCCCCC(=O)N[C@@H](Cc1c[nH]c2ccccc12)C(=O)N[C@H](CC(N)=O)C(=O)N[C@@H](CC(=O)O)C(=O)N[C@@H]1C(=O)NCC(=O)N[C@@H](CCCN)C(=O)N[C@@H](CC(=O)O)C(=O)N[C@H](C)C(=O)N[C@@H](CC(=O)O)C(=O)NCC(=O)N[C@H](CO)C(=O)N[C@@H]([C@H](C)CC(=O)O)C(=O)N[C@@H](CC(=O)c2ccccc2N)C(=O)O[C@@H]1C [Daptomycin]
Cl (θ1), bootstrap mean ([1]; 1500-samples bootstrap): 0.631 L/h
V (θ2), bootstrap mean ([1]; 1500-samples bootstrap): 10.935 L
kCrCl (θ5), bootstrap mean ([1]; 1500-samples bootstrap): 0.128
kSex (θ6), bootstrap mean ([1]; 1500-samples bootstrap): −2.484
Vd ([1]; human, in vivo): 10.9 L
clearance ([1]; human, in vivo): 10.6 mL/min
CFR against E. faecium reported by Turnidge et al. (E. faecium; 8 mg/kg × MIC 2): 80.4%
CFR against E. faecium reported by Turnidge et al. (E. faecium; 10 mg/kg × MIC 2): 92.9%
Daptomycin plasma concentration 1 h, mean ± SD ([2]; daily dose 12 mg/kg, n = 4 patients): 80.0 ± 25.7
Daptomycin plasma concentration 23.5 h, mean ± SD ([2]; daily dose 4–5 mg/kg, n = 15 patients): 11.4 ± 8.7
Daptomycin plasma concentration 1 h, mean ± SD [2, 3]: 59.3 ± 18.0
Daptomycin plasma concentration 23.5 h, mean ± SD [2, 3]: 17.8 ± 11.0
Daptomycin plasma concentration 1 h, mean ± SD [2, 4]: 74.4 ± 51.3
Daptomycin plasma concentration 23.5 h, mean ± SD [2, 4]: 15.5 ± 10.7
Daptomycin plasma concentration 1 h, mean ± SD [2, 5]: 69.8 ± 21.7
Daptomycin plasma concentration 23.5 h, mean ± SD [2, 5]: 25.4 ± 14.1
